Source: patent US20240043661A1, “CYCLODEXTRIN DIMERS AND USES THEREOF” (UNDERDOG PHARMACEUTICALS, INC., priority 2020, published 2024)

Tests used:
[1] = In vitro solubility assay (turbidity assay) with cholesterol; assay type: physicochemical; details: 300 μM sterol, 3% ethanol in PBS, 30 mins at 37C, absorbance at 350 nm
Experimental: (§1) Greater affinity for one compound than another, e.g., greater affinity for 7KC than cholesterol, may be determined using a “turbidity test” performed on an aqueous suspension containing 3% ethanol, 300 uM sterol, in PBS and 1 mM of the CD to be tested. This single concentration of CD is used in order to standardize the test results. To perform the test, the samples are incubated for 30 mins at 37C, and then absorbance at 350 nm is measured, e.g., using a spectrophotometer plate reader. Relative turbidity is determined by dividing the measured turbidity in the presence of the CD to the baseline turbidity without the CD. A given CD has greater affinity for 7KC than cholesterol if the relative turbidity of the 7KC suspension is lower than the relative turbidity of the cholesterol solution.
(§2) Sterol stock solutions (including cholesterol and 7KC) were suspended in 100% ethanol. Final concentration of suspensions: 3% ethanol, 300 μM sterol, in PBS with various concentrations of CDs.

[2] = In vitro solubility assay (turbidity assay) with 7KC; assay type: physicochemical; details: 300 μM sterol, 3% ethanol in PBS, 30 mins at 37C, absorbance at 350 nm
Experimental: as §1, §2

solubilization / binding of cholesterol (turbidity) [1]: low affinity for 7KC and cholesterol
solubilization / binding of 7KC (turbidity) [2]: low affinity for 7KC and cholesterol
Structure (SMILES): OC[C@H]1O[C@@H]2O[C@H]3[C@H](O)[C@@H](O)[C@@H](O[C@H]4[C@H](O)[C@@H](O)[C@@H](O[C@H]5[C@H](O)[C@@H](O)[C@@H](O[C@H]6[C@H](O)[C@@H](O)[C@@H](O[C@H]7[C@H](O)[C@@H](O)[C@@H](O[C@H]1[C@H](O)[C@H]2O)O[C@@H]7CO)O[C@@H]6CO)O[C@@H]5CO)O[C@@H]4CO)O[C@@H]3CO [native αCD]
specificity for 7KC over cholesterol (turbidity) [2]: no specificity
